Biological target: T1, FXa•FVa2 complex (Homo sapiens, UniProt P00742+P12259)
T1 construct: Human prothrombin and factor Xa; tissue Hematologic Technologies Inc. (factor Xa only); factor Xa purchased
Assay: Native gel electrophoresis (Ferguson analysis), C6PS bound to FXa•FVa2 complex
Assay type: binding
Protocol: A mixture of FXa and FVa2 in the absence (lane 1 of gel) and presence (lane 2) of 400 μM C6PS (5 mM Ca^2+) was analyzed by native polyacrylamide gel electrophoresis on a standard 6% gel (Majumder, et al. (2002) supra). A log-log plot of retardation coefficients versus molecular mass of different reference proteins is also shown (open circles). Points have been added to this plot for retardation coefficients obtained for FXa (triangle) or FVa2 (4-point star) in the absence of C6PS, and of the FXa•FVa2 complex (5-point star) formed in the presence of C6PS. The apparent molecular weight of the complex, as identified from this plot, was 224±3.7 kilodaltons.
Native Gel Electrophoresis. This method has been used to document the association of blood coagulation proteins in solution (Majumder, et al. (2002) supra; Majumder, et al. (2003) supra). […] Protein retardation coefficients, which depend to a good approximation only on the hydrodynamic size and shape of the protein, were determined for both the marker and unknown proteins (Ferguson (1964) Metabolism 13:985-1002). A log-log plot of the retardation coefficient against the molecular weights of the marker proteins produced a linear curve from which the molecular weight of the FVa•FXa complex was determined from its measured retardation coefficient (Bryan (1977) Anal. Biochem. 78(2):513-9). […]

T1 sequence (P00742 41-179 limits assumed): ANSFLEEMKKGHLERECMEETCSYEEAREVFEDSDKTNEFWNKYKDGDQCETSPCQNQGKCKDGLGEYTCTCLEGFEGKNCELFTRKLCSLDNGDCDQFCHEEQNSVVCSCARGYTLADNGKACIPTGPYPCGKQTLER
T1 sequence (P00742 235-488 limits assumed): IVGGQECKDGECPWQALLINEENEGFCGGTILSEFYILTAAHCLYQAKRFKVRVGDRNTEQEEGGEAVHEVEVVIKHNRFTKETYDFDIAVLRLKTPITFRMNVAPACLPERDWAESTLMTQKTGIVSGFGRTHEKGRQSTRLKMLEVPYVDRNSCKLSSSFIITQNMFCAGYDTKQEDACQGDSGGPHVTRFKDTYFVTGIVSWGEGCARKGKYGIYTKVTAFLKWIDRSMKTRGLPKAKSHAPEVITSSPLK
T1 sequence (P12259 29-737 limits assumed): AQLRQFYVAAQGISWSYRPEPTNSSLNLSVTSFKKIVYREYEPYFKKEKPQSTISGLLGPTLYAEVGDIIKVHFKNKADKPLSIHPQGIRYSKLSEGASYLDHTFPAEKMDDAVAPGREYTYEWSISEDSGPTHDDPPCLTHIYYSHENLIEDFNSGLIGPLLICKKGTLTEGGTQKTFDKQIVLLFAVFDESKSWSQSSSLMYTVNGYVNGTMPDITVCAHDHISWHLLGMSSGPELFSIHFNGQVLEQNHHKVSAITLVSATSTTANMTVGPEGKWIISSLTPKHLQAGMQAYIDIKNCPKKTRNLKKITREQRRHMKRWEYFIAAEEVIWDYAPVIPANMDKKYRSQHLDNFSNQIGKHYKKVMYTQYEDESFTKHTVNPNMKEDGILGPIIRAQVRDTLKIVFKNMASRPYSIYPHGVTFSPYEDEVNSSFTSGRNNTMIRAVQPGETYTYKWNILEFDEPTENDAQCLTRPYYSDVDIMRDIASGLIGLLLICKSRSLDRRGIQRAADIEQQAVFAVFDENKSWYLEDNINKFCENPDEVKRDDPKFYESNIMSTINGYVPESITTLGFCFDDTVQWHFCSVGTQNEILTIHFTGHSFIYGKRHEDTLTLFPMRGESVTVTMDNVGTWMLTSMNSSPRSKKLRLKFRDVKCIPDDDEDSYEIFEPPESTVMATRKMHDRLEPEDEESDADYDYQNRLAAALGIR
T1 sequence (P12259 1574-2224 limits assumed): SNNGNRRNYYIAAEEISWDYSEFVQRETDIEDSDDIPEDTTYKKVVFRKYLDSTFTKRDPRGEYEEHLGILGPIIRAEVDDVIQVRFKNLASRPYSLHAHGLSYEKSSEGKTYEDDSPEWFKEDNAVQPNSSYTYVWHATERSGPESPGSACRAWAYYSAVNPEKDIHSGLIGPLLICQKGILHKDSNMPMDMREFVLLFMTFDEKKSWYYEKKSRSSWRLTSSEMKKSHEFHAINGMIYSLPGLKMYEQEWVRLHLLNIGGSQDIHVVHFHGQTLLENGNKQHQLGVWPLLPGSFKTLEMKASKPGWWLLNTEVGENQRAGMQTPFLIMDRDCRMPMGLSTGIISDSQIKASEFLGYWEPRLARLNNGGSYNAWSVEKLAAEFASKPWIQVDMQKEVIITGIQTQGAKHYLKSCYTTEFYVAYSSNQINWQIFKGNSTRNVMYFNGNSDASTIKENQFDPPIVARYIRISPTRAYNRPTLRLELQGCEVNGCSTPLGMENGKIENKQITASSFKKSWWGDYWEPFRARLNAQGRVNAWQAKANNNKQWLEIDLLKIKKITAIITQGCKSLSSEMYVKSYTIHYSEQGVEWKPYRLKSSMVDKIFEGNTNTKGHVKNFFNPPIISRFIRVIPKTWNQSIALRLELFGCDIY

CCCCCC(=O)OC[C@H](COP(=O)(O)OC[C@H](N)C(=O)O)OC(=O)CCCCC [C6PS, 1,2-dicaproyl-sn-glycero-3-phospho-L-serine]
C6PS in stoichiometry Xa:Va2:C6PS of the complex from molecular mass (400 μM C6PS): 3.4±7.7
most likely number of C6PS molecules bound to the complex (based on equilibrium dialysis stoichiometries): 5-6 molecules
